Data taken from patent US20260001914A1, “MACROCYCLIC PEPTIDES TARGETING KRAS” (Merck Sharp & Dohme LLC, priority 2022, published 2026).
*1 amine or outer side, *2 acyl side, *3 side chain or, on linkers, in order; H or OH if unused. Where a SMILES comes first, the peptide text is derived from it. Bridges are numbered along the chain shown (N, C = ends). [ ]: non-standard residue; d: D form. Phe(4-guanidino) = N=C(N)Nc1ccc(C[C@H](N)C(=O)O)cc1; X18 = CNC(=N)N(C)c1ccc(C[C@H](N[*:1])C(=O)[*:2])cc1; X19 = C[C@H](c1ccccc1)[C@@H](C(=O)[*:2])N(C)[*:1]; X22 = CNC(=N)N(C)CCC[C@@H](C(=O)[*:2])N(C)[*:1]; Ala(pyrimidin-5-yl) = N[C@@H](Cc1cncnc1)C(=O)O; NMe3Pal(6-Me) = CN[C@@H](Cc1ccc(C)nc1)C(=O)O; X8 = CN([C@@H](Cc1ccc(F)nc1)C(=O)[*:2])[*:1]; Ala(thiazol-5-yl) = N[C@@H](Cc1cncs1)C(=O)O; X43 = CN([C@@H](Cc1cnccc1F)C(=O)[*:2])[*:1]; NMePhe(3-F) = CN[C@@H](Cc1cccc(F)c1)C(=O)O; NMeNva(5,5-F2) = CN[C@@H](CCC(F)F)C(=O)O; X11 = CC(C)(F)CC[C@H](N[*:1])C(=O)[*:2]; X46 = O=C([C@H](Cc1cccnc1F)N[*:1])[*:2]; Phe(2-F) = N[C@@H](Cc1ccccc1F)C(=O)O; NMe3Pal = CN[C@@H](Cc1cccnc1)C(=O)O; X1 = O=C(C12CC(CN[*:1])(C1)C2)[*:2]; NMeLys(Me) = CNCCCC[C@H](NC)C(=O)O; X17 = O=C([C@H](CCCCF)N[*:1])[*:2]; NMeOrn(Me) = CNCCC[C@H](NC)C(=O)O; Ala(cPr) = N[C@@H](CC1CC1)C(=O)O; NMeF = CN[C@@H](Cc1ccccc1)C(=O)O; PhLac = O=C(O)[C@@H](O)Cc1ccccc1; X4 = O=C([C@H](CCCF)N[*:1])[*:2]; 3Pal = N[C@@H](Cc1cccnc1)C(=O)O; Ahp(2) = CCCCC[C@H](N)C(=O)O; Cba = N[C@@H](CC1CCC1)C(=O)O; hLeu = CC(C)CC[C@H](N)C(=O)O; αMeC = C[C@](N)(CS)C(=O)O; NMeA = CN[C@@H](C)C(=O)O; Nle = CCCC[C@H](N)C(=O)O

target: phosphorylation levels of ERK1/2 in AsPC-1 (homozygous KRAS-G12D) cells (Homo sapiens, UniProt P01116, G12D); assay: Cellular phospho-ERK assay in AsPC-1 cells (Alpha Screen), assay medium without fetal bovine serum; format: cell-based; conditions: phospho-ERK AlphaScreen, 18 h;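 further: signal taken as phospho-ERK over total ERK per well, both detected in one multiplex bead assay, EC50 from four-parameter logistic fit of dose-response curves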
Sequence (P01116 1-186 G12D): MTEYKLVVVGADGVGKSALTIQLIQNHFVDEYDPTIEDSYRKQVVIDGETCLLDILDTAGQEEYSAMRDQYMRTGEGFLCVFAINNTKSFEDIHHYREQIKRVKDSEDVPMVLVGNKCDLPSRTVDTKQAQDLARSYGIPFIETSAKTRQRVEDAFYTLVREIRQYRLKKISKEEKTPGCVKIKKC

Row | SMILES | EC50
1 | CC(C)CC[C@@H]1NC(=O)[C@H](Cc2ccccc2F)NC(=O)[C@H](CCCF)NC(=O)[C@H](Cc2cncnc2)NC(=O)[C@H](C)N(C)C(=O)[C@H](Cc2ccccc2)OC(=O)C23CC(CNC(=O)[C@H](Cc4ccccc4)N(C)C1=O)(C2)C3 [compound 133, cyclo(FLac-NMeA-PyrimAla-NvaF-Phe2F-hL-NMeF-amBCP)] (cyclo([NMeA][Ala(pyrimidin-5-yl)][X4][Phe(2-F)][hLeu][NMeF][X1][PhLac])) | 2.26 µM
2 | C[C@H](c1ccccc1)[C@H]1C(=O)NCC23CC(C2)(C3)C(=O)O[C@@H](Cc2ccccc2)C(=O)N(C)[C@@H](C)C(=O)N[C@@H](Cc2cncnc2)C(=O)N[C@@H](CC2CC2)C(=O)N[C@@H](Cc2ccccc2F)C(=O)N[C@@H](CCC(C)(C)F)C(=O)N1C [compound 341, cyclo(FLac-NMeA-PyrimAla-cPrA-Phe2F-hL3F-NMeRbMeF-amBCP)] (cyclo([Ala(cPr)][Phe(2-F)][X11][X19][X1][PhLac][NMeA][Ala(pyrimidin-5-yl)])) | > 50.8 µM
3 | CCCCC[C@@H]1NC(=O)[C@H](Cc2ccc(OC)cc2)NC(=O)[C@H](CC2CCC2)NC(=O)[C@H](Cc2ccc(-c3cccnc3N)cc2)NC(=O)[C@H](CCCNC(=N)N)NC(=O)[C@H](Cc2ccccc2)NC(=O)CSC[C@@](C)(C(N)=O)NC(=O)[C@H](Cc2ccccc2)N(C)C1=O [compound 390, cyclo(F-R-Phe43PyNH2-cBuA-TyrOMe-Ahp-NMeF-aMeCl-ClAc)] | > 50.8 µM
4 | CCCC[C@@H]1NC(=O)[C@H](Cc2ccc(O)cc2)NC(=O)[C@H](CC2CCCCC2)NC(=O)[C@H](CCCCN)NC(=O)[C@H](CCCNC(=N)N)NC(=O)[C@H](Cc2cccc3ccccc23)NC(=O)CSC[C@H](C(N)=O)NC(=O)[C@H](Cc2ccccc2)N(C)C1=O [compound 139, cyclo(INal-R-K-Cha-Y-Nle-NMeF-dCl-ClAc)] | > 50.8 µM
5 | CCCC[C@@H]1NC(=O)[C@H](Cc2cncnc2)NC(=O)[C@H](C)N(C)C(=O)[C@H](Cc2ccccc2)OC(=O)C23CC(CNC(=O)[C@H](Cc4cccc(F)c4)N(C)C(=O)[C@H](CCCC)NC(=O)[C@H](Cc4ccccc4F)NC1=O)(C2)C3 [compound 174, cyclo(FLac-NMeA-PyrimAla-Nle-Phe2F-Nle-NMePhe3F-amBCP)] (cyclo([NMeA][Ala(pyrimidin-5-yl)][Nle][Phe(2-F)][Nle][NMePhe(3-F)][X1][PhLac])) | 0.734 µM
6 | CON=C1C[C@@H](Cc2ccccc2)C(=O)N(C)[C@@H](C)C(=O)N[C@@H](Cc2cncnc2)C(=O)N[C@@H](CC2CC2)C(=O)N[C@@H](Cc2ccccc2F)C(=O)N[C@@H](CCC(C)(F)F)C(=O)N(C)[C@@H](Cc2ccccc2)C(=O)NCC23CC1(C2)C3 (single isomer, unassigned) [compound 177, cyclo(CPhe-NMeA-PyrimAla-cPrA-Phe2F-Nle3F2-NMeF-MeOximamBCP)] | 3.4 µM
7 | CCCC[C@@H]1NC(=O)[C@H](Cc2cccnc2)NC(=O)[C@H](C)N(C)C(=O)[C@H](Cc2ccc(OC)cc2)NC(=O)C23CC(CNC(=O)[C@H](Cc4cccnc4)N(C)C(=O)[C@H](CCCC)NC(=O)[C@H](Cc4ccccc4F)NC1=O)(C2)C3 [compound 169, cyclo(TyrOMe-NMeA-3Pal-Nle-Phe2F-Nle-NMe3Pal-amBCP)] (cyclo([3Pal][Nle][Phe(2-F)][Nle][NMe3Pal][X1]Y(Me)[NMeA])) | > 50.8 µM
8 | CCCCC[C@@H]1NC(=O)[C@H](Cc2ccc(OC)cc2)NC(=O)[C@H](CC2CCC2)NC(=O)[C@H](Cc2ccc(NC(=N)N)cc2)NC(=O)[C@H](CCCNC)N(C)C(=O)[C@H](Cc2ccccc2)NC(=O)CSC[C@@](C)(C(N)=O)NC(=O)[C@H](Cc2ccccc2)N(C)C1=O [compound 385, cyclo(F-NMeOrnMe-Phe4Gn-cBuA-TyrOMe-Ahp-NMeF-aMeCl-ClAc)] ({CH2CO}-F[NMeOrn(Me)][Phe(4-guanidino)][Cba]Y(Me)[Ahp(2)][NMeF][αMeC]-NH2; thioether N-8) | > 50.8 µM
9 | CCCC[C@@H]1NC(=O)[C@H](Cc2cccnc2)NC(=O)[C@H](CCCN(C)C(=N)NC)N(C)C(=O)[C@H](Cc2ccccc2)OC(=O)CSC[C@@](C)(C(N)=O)NC(=O)[C@H](Cc2cccnc2)N(C)C(=O)[C@H](CCCC)NC(=O)[C@H](Cc2ccccc2F)NC1=O [compound 396, cyclo(FLac-NMeArg1MeMe-3Pal-Nle-Phe2F-Nle-NMe3Pal-aMeCl-ClAc)] ({CH2CO}-[PhLac][X22][3Pal][Nle][Phe(2-F)][Nle][NMe3Pal][αMeC]-NH2; thioether N-8) | > 50.8 µM
10 | CC(C)CC[C@@H]1NC(=O)[C@H](Cc2ccccc2F)NC(=O)[C@H](CC2CC2)NC(=O)[C@H](Cc2cncnc2)NC(=O)[C@H](C)N(C)C(=O)[C@H](Cc2ccccc2)OC(=O)C23CC(CNC(=O)[C@H](Cc4cnccc4F)N(C)C1=O)(C2)C3 [compound 338, cyclo(FLac-NMeA-PyrimAla-cPrA-Phe2F-hL-NMe3Pal6F-amBCP)] (cyclo([Ala(cPr)][Phe(2-F)][hLeu][X43][X1][PhLac][NMeA][Ala(pyrimidin-5-yl)])) | 1.86 µM
11 | CCCCC[C@@H]1NC(=O)[C@H](Cc2ccc(OC)cc2)NC(=O)[C@H](CC2CCC2)NC(=O)[C@H](Cc2ccc(NC(=N)N)cc2)NC(=O)[C@H](CCCCNC)N(C)C(=O)[C@H](Cc2ccccc2)NC(=O)CSC[C@@](C)(C(N)=O)NC(=O)[C@H](Cc2ccccc2)N(C)C1=O [compound 360, cyclo(F-NMeLysMe-Phe4Gn-cBuA-TyrOMe-Ahp-NMeF-aMeCl-ClAc)] ({CH2CO}-F[NMeLys(Me)][Phe(4-guanidino)][Cba]Y(Me)[Ahp(2)][NMeF][αMeC]-NH2; thioether N-8) | > 50.8 µM
12 | C[C@H]1C(=O)N[C@@H](Cc2cncnc2)C(=O)N[C@@H](CC2CC2)C(=O)N[C@@H](Cc2ccccc2F)C(=O)N[C@@H](CC2CC2)C(=O)N(C)[C@@H](Cc2ccccc2)C(=O)NCC23CC(C2)(C3)C(=O)O[C@@H](Cc2ccccc2)C(=O)N1C [compound 267, cyclo(FLac-NMeA-PyrimAla-cPrA-Phe2F-cPrA-NMeF-amBCP)] (cyclo([Ala(cPr)][NMeF][X1][PhLac][NMeA][Ala(pyrimidin-5-yl)][Ala(cPr)][Phe(2-F)])) | 9.13 µM
13 | CCCCC[C@@H]1NC(=O)[C@H](Cc2ccc(OC)cc2)NC(=O)[C@H](CC2CCC2)NC(=O)[C@H](Cc2cncs2)NC(=O)[C@H](CCCNC(=N)N)NC(=O)[C@H](Cc2ccccc2)NC(=O)CSC[C@@](C)(C(N)=O)NC(=O)[C@H](Cc2ccccc2)N(C)C1=O [compound 363, cyclo(F-R-TZAla-cBuA-TyrOMe-Ahp-NMeF-aMeCl-ClAc)] ({CH2CO}-FR[Ala(thiazol-5-yl)][Cba]Y(Me)[Ahp(2)][NMeF][αMeC]-NH2; thioether N-8) | > 50.8 µM
14 | CCCC[C@@H]1NC(=O)[C@H](Cc2cccnc2)NC(=O)[C@H](C)N(C)C(=O)[C@H](Cc2ccccc2)OC(=O)C23CC(CNC(=O)[C@H](Cc4ccc(C)nc4)N(C)C(=O)[C@H](CCCC)NC(=O)[C@H](Cc4ccccc4F)NC1=O)(C2)C3 [compound 402, cyclo(FLac-NMeA-3Pal-Nle-Phe2F-Nle-NMe3Pal4Me-amBCP)] (cyclo([3Pal][Nle][Phe(2-F)][Nle][NMe3Pal(6-Me)][X1][PhLac][NMeA])) | 9.95 µM
15 | CCCCC[C@@H]1NC(=O)[C@H](Cc2ccc(OC)cc2)NC(=O)[C@H](CC2CCC2)NC(=O)[C@H](Cc2ccc(NC(=N)N)cc2)NC(=O)[C@H](CCCN(C)C(=N)NC)N(C)C(=O)[C@H](Cc2ccccc2)NC(=O)CSC[C@@](C)(C(N)=O)NC(=O)[C@H](Cc2ccccc2)N(C)C1=O [compound 381, cyclo(F-NMeArg1MeMe-Phe4Gn-cBuA-TyrOMe-Ahp-NMeF-aMeCl-ClAc)] ({CH2CO}-F[X22][Phe(4-guanidino)][Cba]Y(Me)[Ahp(2)][NMeF][αMeC]-NH2; thioether N-8) | > 50.8 µM
16 | CCCC[C@@H]1NC(=O)[C@H](Cc2ccccc2F)NC(=O)[C@H](CCCCF)NC(=O)[C@H](Cc2cncnc2)NC(=O)[C@H](C)N(C)C(=O)[C@H](Cc2ccccc2)OC(=O)C23CC(CNC(=O)[C@H](Cc4ccccc4)N(C)C1=O)(C2)C3 [compound 130, cyclo(FLac-NMeA-PyrimAla-NleF-Phe2F-Nle-NMeF-amBCP)] (cyclo([NMeA][Ala(pyrimidin-5-yl)][X17][Phe(2-F)][Nle][NMeF][X1][PhLac])) | 2.03 µM
17 | CC(C)CC[C@@H]1NC(=O)[C@H](Cc2ccccc2F)NC(=O)[C@H](CC2CC2)NC(=O)[C@H](Cc2cncnc2)NC(=O)[C@H](C)N(C)C(=O)[C@H](Cc2ccccc2)OC(=O)C23CC(CNC(=O)[C@H](Cc4ccc(F)nc4)N(C)C1=O)(C2)C3 [compound 339, cyclo(FLac-NMeA-PyrimAla-cPrA-Phe2F-hL-NMe3Pal4F-amBCP)] (cyclo([Ala(cPr)][Phe(2-F)][hLeu][X8][X1][PhLac][NMeA][Ala(pyrimidin-5-yl)])) | 1.65 µM
18 | CCCC[C@@H]1NC(=O)[C@H](Cc2ccc(N(C)C(=N)NC)cc2)NC(=O)[C@H](C)N(C)C(=O)[C@H](Cc2ccccc2)OC(=O)CSC[C@@](C)(C(N)=O)NC(=O)[C@H](Cc2cccnc2)N(C)C(=O)[C@H](CCCC)NC(=O)[C@H](Cc2ccccc2F)NC1=O [compound 397, cyclo(FLac-NMeA-Phe4GnMeMe-Nle-Phe2F-Nle-NMe3Pal-aMeCl-ClAc)] ({CH2CO}-[PhLac][NMeA][X18][Nle][Phe(2-F)][Nle][NMe3Pal][αMeC]-NH2; thioether N-8) | > 50.8 µM
19 | CC(C)CC[C@@H]1NC(=O)[C@H](Cc2ccccc2F)NC(=O)[C@H](CC2CC2)NC(=O)[C@H](Cc2cncnc2)NC(=O)[C@H](CCC(F)F)N(C)C(=O)[C@H](Cc2ccccc2)OC(=O)C23CC(CNC(=O)[C@H](Cc4ccccc4)N(C)C1=O)(C2)C3 [compound 217, cyclo(FLac-NMeNvaF2-PyrimAla-cPrA-Phe2F-hL-NMeF-amBCP)] (cyclo([Ala(cPr)][Phe(2-F)][hLeu][NMeF][X1][PhLac][NMeNva(5,5-F2)][Ala(pyrimidin-5-yl)])) | 1.77 µM
20 | CCCC[C@@H]1NC(=O)[C@H](Cc2cccnc2F)NC(=O)[C@H](C)N(C)C(=O)[C@H](Cc2ccccc2)OC(=O)C23CC(CNC(=O)[C@H](Cc4cccnc4)N(C)C(=O)[C@H](CCCC)NC(=O)[C@H](Cc4ccccc4F)NC1=O)(C2)C3 [compound 117, cyclo(FLac-NMeA~3Pal2F-Nle-Phe2F-Nle-NMe3Pal-amBCP)] (cyclo([NMe3Pal][X1][PhLac][NMeA][X46][Nle][Phe(2-F)][Nle])) | 50.2 µM
